We go through eight cell lines from the supplement of paper PMC10307832.

Assay in all cases: relative viability (nuclei count vs DMSO), 5 days (fraction); higher = more cells survive
Compound in assay [1]: N=C1NC(=O)/C(=C/c2ccc(O)cc2)S1 [Mirin] + Cc1nc(NC(=O)N2CCC[C@H]2C(N)=O)sc1-c1ccnc(C(C)(C)C(F)(F)F)c1 [Alpelisib] (partner 2 µM)
The method, boiled down: (§1)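 Values are medians from duplicate plates. Each reflects relative viability, defined as the nuclei count of treated wells over that of vehicle wells. Lung cancer cell lines in 1536-well plates were pin-tool dosed one day after seeding with one drug alone or with a fixed anchor-drug dose plus five library-drug doses (not always all listed) in √10 steps, then fixed, stained and imaged at 4× after 5 days.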

Compound in assay [2]: CCn1c(-c2nonc2N)nc2cnc(Oc3cccc(NC(=O)c4ccc(OCCN5CCOCC5)cc4)c3)cc21 + COc1cc2c(Oc3ccc(NC(=O)C4(C(=O)Nc5ccc(F)cc5)CC4)cc3F)ccnc2cc1OCCCN1CCOCC1 [Foretinib] (partner 0.25 µM)
In short, it runs like this: as §1

Compound in assay [3]: CCC1=CN=CN=C1N2CCN(CC2)CC3=NC4=C(N3)C=C(C=C4)C(F)(F)F + Nc1nc2[nH]cc(CCc3ccc(C(=O)N[C@@H](CCC(=O)O)C(=O)O)cc3)c2c(=O)[nH]1 [Pemetrexed] (partner 0.2 µM)
The method, boiled down:
as §1

Compound in assay [4]: CCn1c(-c2nonc2N)nc2cnc(Oc3cccc(NC(=O)c4ccc(OCCN5CCOCC5)cc4)c3)cc21 + CS(=O)(=O)N1CCN(Cc2cc3nc(-c4cccc5[nH]ncc45)nc(N4CCOCC4)c3s2)CC1 [Pictilisib] (partner 1 µM)
The method, boiled down:
as §1

In the case of 201T, the relative viability in assay [1] (first compound 0.25 µM) came to 1.01; in assay [1] (first compound 0.7906 µM) it was 1; in assay [1] (first compound 2.5 µM), 1.02; in assay [1] (first compound 7.906 µM), 1.11; in assay [1] (first compound 25 µM), 1.14; in assay [2] (first compound 0.04 µM), 1.28. Further, the relative viability in assay [2] (first compound 0.1265 µM) worked out at 1.11; in assay [2] (first compound 0.4 µM), 1.05; in assay [2] (first compound 1.265 µM), 0.555; in assay [2] (first compound 4 µM) it was 0.598; in assay [3] (first compound 0.04 µM), 0.274; in assay [3] (first compound 0.1265 µM) it was 0.312. Further, the relative viability in assay [3] (first compound 0.4 µM) amounted to 0.297; in assay [3] (first compound 1.265 µM) it was 0.322; in assay [3] (first compound 4 µM), 0.375; in assay [4] (first compound 0.04 µM) it was 0.732; in assay [4] (first compound 0.1265 µM), 0.67; in assay [4] (first compound 0.4 µM), 0.586. Moreover, the relative viability in assay [4] (first compound 1.265 µM) was found to be 0.631; in assay [4] (first compound 4 µM) it was 0.743.

In the case of A549, the relative viability was 0.635 in assay [1] (first compound 0.25 µM); 0.719 in assay [1] (first compound 0.7906 µM); 0.58 in assay [1] (first compound 2.5 µM); 0.58 in assay [1] (first compound 7.906 µM); 0.733 in assay [1] (first compound 25 µM); 1.19 in assay [2] (first compound 0.04 µM). For the same cell line, the relative viability in assay [2] (first compound 0.1265 µM) was 0.985; in assay [2] (first compound 0.4 µM) it was 1.06; in assay [2] (first compound 1.265 µM) it was 0.246; in assay [2] (first compound 4 µM), 0.12; in assay [4] (first compound 0.04 µM) it was 0.801; in assay [4] (first compound 0.1265 µM), 0.408. Moreover, the results for the relative viability in assay [4] (first compound 0.4 µM), in assay [4] (first compound 1.265 µM) and in assay [4] (first compound 4 µM) were 0.436, 0.139 and 0.0926, respectively.

For A-427, the relative viability is 1.2 in assay [1] (first compound 0.25 µM); 1.15 in assay [1] (first compound 2.5 µM); 1.1 in assay [1] (first compound 7.906 µM); 1.14 in assay [1] (first compound 25 µM); 1.12 in assay [2] (first compound 0.04 µM); 0.947 in assay [2] (first compound 0.1265 µM). The relative viability worked out at 1.14 in assay [2] (first compound 0.4 µM); 1.02 in assay [2] (first compound 1.265 µM); 1.21 in assay [2] (first compound 4 µM); 0.761 in assay [3] (first compound 0.04 µM); 0.934 in assay [3] (first compound 0.1265 µM); 0.873 in assay [3] (first compound 0.4 µM). Moreover, the relative viability was found to be 0.835 in assay [3] (first compound 1.265 µM); 0.898 in assay [3] (first compound 4 µM); 0.879 in assay [4] (first compound 0.04 µM); 0.674 in assay [4] (first compound 0.1265 µM); 0.666 in assay [4] (first compound 0.4 µM); 0.526 in assay [4] (first compound 1.265 µM). Besides, the relative viability in assay [4] (first compound 4 µM) turned out to be 0.402.

ABC-1: the relative viability in assay [1] (first compound 0.25 µM) is 1.34; in assay [1] (first compound 0.7906 µM), 1.14; in assay [1] (first compound 2.5 µM) it was 1.09; in assay [1] (first compound 7.906 µM), 1.1; in assay [1] (first compound 25 µM), 0.633; in assay [2] (first compound 0.04 µM), 0.804. Further, the relative viability is 1.29 in assay [2] (first compound 0.1265 µM); 1.15 in assay [2] (first compound 0.4 µM); 0.802 in assay [2] (first compound 1.265 µM); 0.417 in assay [2] (first compound 4 µM); 1.34 in assay [4] (first compound 0.04 µM); 0.599 in assay [4] (first compound 0.1265 µM). The values for the relative viability in assay [4] (first compound 0.4 µM), in assay [4] (first compound 1.265 µM) and in assay [4] (first compound 4 µM) were 0.494, 0.442 and 0.401, respectively.

For the cell line BEN, the relative viability in assay [1] (first compound 0.25 µM) was 1.03; in assay [1] (first compound 0.7906 µM), 1.08; in assay [1] (first compound 2.5 µM), 1.09; in assay [1] (first compound 7.906 µM), 0.973; in assay [1] (first compound 25 µM) it was 0.467; in assay [2] (first compound 0.04 µM) it was 0.668. Further, the relative viability was 0.449 in assay [2] (first compound 0.1265 µM); 0.338 in assay [2] (first compound 0.4 µM); 0.346 in assay [2] (first compound 1.265 µM); 0.351 in assay [2] (first compound 4 µM); 0.605 in assay [3] (first compound 0.04 µM); 0.651 in assay [3] (first compound 0.1265 µM). For the same cell line, the relative viability in assay [3] (first compound 0.4 µM) was 0.667; in assay [3] (first compound 1.265 µM), 0.551; in assay [3] (first compound 4 µM), 0.676; in assay [4] (first compound 0.04 µM), 0.574; in assay [4] (first compound 0.1265 µM), 0.501; in assay [4] (first compound 0.4 µM), 0.43. For the same cell line, the relative viability in assay [4] (first compound 1.265 µM) came out at 0.285; in assay [4] (first compound 4 µM), 0.318.

In the case of CAL-12T, the relative viability is 1 in assay [1] (first compound 0.25 µM); 1.36 in assay [1] (first compound 0.7906 µM); 1.15 in assay [1] (first compound 2.5 µM); 1.23 in assay [1] (first compound 7.906 µM); 1.34 in assay [1] (first compound 25 µM); 1.42 in assay [2] (first compound 0.04 µM). The relative viability in assay [2] (first compound 0.1265 µM) is 1.3; in assay [2] (first compound 0.4 µM) it was 1.28; in assay [2] (first compound 1.265 µM), 0.793; in assay [2] (first compound 4 µM), 0.51; in assay [3] (first compound 0.04 µM) it was 1.3; in assay [3] (first compound 0.1265 µM), 1.18. Moreover, the relative viability in assay [3] (first compound 0.4 µM) came to 1.19; in assay [3] (first compound 1.265 µM) it was 1.24; in assay [3] (first compound 4 µM), 1.18; in assay [4] (first compound 0.04 µM), 0.486; in assay [4] (first compound 0.1265 µM) it was 0.549; in assay [4] (first compound 0.4 µM), 0.525. Besides, the relative viability in assay [4] (first compound 4 µM) is 0.408.

In the case of COR-L23, the relative viability is 0.847 in assay [1] (first compound 0.25 µM); 0.822 in assay [1] (first compound 0.7906 µM); 0.758 in assay [1] (first compound 2.5 µM); 0.715 in assay [1] (first compound 7.906 µM); 0.682 in assay [1] (first compound 25 µM); 0.91 in assay [2] (first compound 0.04 µM). Further, the relative viability was 0.778 in assay [2] (first compound 0.1265 µM); 0.569 in assay [2] (first compound 0.4 µM); 0.182 in assay [2] (first compound 1.265 µM); 0.176 in assay [2] (first compound 4 µM); 0.208 in assay [3] (first compound 0.04 µM); 0.199 in assay [3] (first compound 0.1265 µM). Besides, the relative viability in assay [3] (first compound 0.4 µM) was 0.189; in assay [3] (first compound 1.265 µM), 0.198; in assay [3] (first compound 4 µM) it was 0.206; in assay [4] (first compound 0.04 µM), 1.02; in assay [4] (first compound 0.1265 µM) it was 0.68; in assay [4] (first compound 0.4 µM) it was 0.238. Also, the relative viability in assay [4] (first compound 1.265 µM) was 0.197; in assay [4] (first compound 4 µM), 0.192.

Consider COR-L 105, for which the relative viability turned out to be 0.914 in assay [1] (first compound 0.25 µM); 1.26 in assay [1] (first compound 0.7906 µM); 1.13 in assay [1] (first compound 2.5 µM); 0.925 in assay [1] (first compound 7.906 µM); 1.04 in assay [1] (first compound 25 µM); 1.25 in assay [2] (first compound 0.04 µM). In addition, the relative viability was 1 in assay [2] (first compound 0.1265 µM); 0.874 in assay [2] (first compound 0.4 µM); 0.575 in assay [2] (first compound 1.265 µM); 0.308 in assay [2] (first compound 4 µM); 1.07 in assay [3] (first compound 0.04 µM); 1.12 in assay [3] (first compound 0.1265 µM). Further, the relative viability turned out to be 1.28 in assay [3] (first compound 0.4 µM); 1.01 in assay [3] (first compound 1.265 µM); 1.03 in assay [3] (first compound 4 µM); 0.361 in assay [4] (first compound 0.04 µM); 0.368 in assay [4] (first compound 0.1265 µM); 0.277 in assay [4] (first compound 0.4 µM). In addition, the relative viability was 0.17 in assay [4] (first compound 1.265 µM) and 0.249 in assay [4] (first compound 4 µM).
